# Reference: patent US9925198B2, “Pharmaceutical composition for preventing or treating hearing loss, comprising carbenoxolone or its pharmaceutically acceptable salts as effective compound” (AJOU UNIVERSITY INDUSTRY-ACADEMIC COOPERATION FOUNDATION, priority 2015, dated 2018)
# Values joined by “and” are separate entries in the source; they are usually repeats but may differ in a detail not shown here. Equal entries are not always repeated. “Also recorded” adds a separate entry of the source. Where two headings read alike, the source gives them in different places.
# Experiments:
# [1] = test system: auditory outer hair cells; assay: Scanning electron microscope (SEM) analysis of cochlea, auditory outer hair cell damage; type: in vivo, SD-rat; conditions: basal turn (32 kHz) and middle turn (16 kHz)
# From the text: Also, degrees of loss and damage on auditory cells at the basal turn (32 kHz) and the middle turn (16 kHz) in cochlea were confirmed by using a scanning electron microscope (SEM) to analyze the shape of cochlea.
# [2] = test system: ototoxic hearing loss induced by cisplatin; assay: Auditory brainstem response (ABR) test, hearing threshold in rats with cisplatin-induced ototoxic hearing loss; type: in vivo, SD-rat; conditions: for hearing threshold (ABR) at 16 kHz / hearing threshold (ABR) at 32 kHz: measured 5 days after; for hearing threshold (ABR) at 16 kHz: tone burst 16 kHz; for hearing threshold (ABR) at 32 kHz: tone burst 32 kHz
# Protocol: Auditory acuity was evaluated by performing an auditory brainstem response (ABR) test on the SD-rat before and after the drug administration. The ABR test was determines the minimum stimuli intensity (dB) that evokes the waveform of wave V by providing tone burst of 16 kHz and 32 kHz using a TDT ABR device as a hearing threshold, and the auditory acuities were measured 1 day before the drug administration and 5 days after the drug administration.
# [3] = test system: auditory sensory hair cell stereocilia; assay: Phalloidin staining of auditory sensory hair cell stereocilia in cochlea; type: in vivo, SD-rat; conditions: basal turn (32 kHz) and middle turn (16 kHz)
# Protocol: Phalloidin staining was performed on auditory sensory hair cell stereocilia markers of the SD-rats administered with drugs by using the method described above to confirm degrees of loss or damage on auditory cells at sites of the basal turn (32 kHz) and the middle turn (16 kHz).
# [4] = test system: cisplatin-takers; conditions: cited from earlier work
# [5] = cisplatin 16 mg/kg + carbenoxolone sodium 50 mg/kg, vs cisplatin alone
# [6] = cisplatin 16 mg/kg i.p. once + carbenoxolone sodium 50 mg/kg daily 2 days before and after cisplatin
# [7] = cisplatin alone 16 mg/kg, compared to control group
# [8] = cisplatin 16 mg/kg + 18α-GA 100 mg/kg
# [9] = cisplatin 16 mg/kg i.p. once + 18α-GA 100 mg/kg daily 2 days before and after cisplatin
structure (smiles),measurement,setting,value
CC1(C)[C@@H](OC(=O)CCC(=O)O)CC[C@]2(C)[C@H]3C(=O)C=C4[C@@H]5C[C@@](C)(C(=O)O)CC[C@]5(C)CC[C@@]4(C)[C@]3(C)CC[C@@H]12 [carbenoxolone sodium],"preservation of outer hair cells (SEM, FIG. 4)",[1]; [5],significantly preserved
same,hearing threshold (ABR) at 16 kHz,[2]; [6],26.3±7.5 dB
same,hearing threshold (ABR) at 32 kHz,[2]; [6],28.8±4.8 dB
same,"preservation of outer hair cells (phalloidin staining, FIG. 3)",[3]; [5],significantly preserved
N.N.[Cl][Pt][Cl] [cisplatin],"auditory outer hair cell damage (SEM, FIG. 4)",[1]; [7],damages on auditory outer hair cells were observed in numbers; also recorded: a number of auditory outer hair cell damages were observed
same,"stereocilia damage (phalloidin staining, FIG. 3)",[3]; [7],a number of stereocilia damages were observed
same,auditory impairment occurrence frequency,[4]; children,about 50%
same,auditory impairment occurrence frequency,[4]; cisplatin-takers,about 30%
"CC1(C)[C@@H](O)CC[C@]2(C)[C@H]3C(=O)C=C4[C@H]5C[C@@](C)(C(=O)O)CC[C@]5(C)CC[C@@]4(C)[C@]3(C)CC[C@@H]12 [18α-GA, 18α-glycyrrhetinic acid]","damage prevention effect (SEM, FIG. 4)",[1]; [8],not confirmed
same,hearing thresholds compared with the cisplatin-treated group,"[2]; cisplatin 16 mg/kg + 18α-GA 100 mg/kg, 16 kHz and 32 kHz",no significant difference; also recorded: did not show significant difference
same,hearing threshold (ABR) at 16 kHz,[2]; [9],49.3±4.8 dB and 46.2±4.1 dB
same,hearing threshold (ABR) at 32 kHz,[2]; [9],46.2±4.1 dB
same,"damage prevention effect (phalloidin staining, FIG. 3)",[3]; [8],not exhibited
